Measurements from patent publication US8058263B2, “Substituted 2-phenyl-pyridine derivatives” (Actelion Pharmaceuticals Ltd, priority 2008, dated 2011).

These compounds were tested against T1, human P2Y12 receptor (Homo sapiens, UniProt Q9H244) (assay: P2Y12 receptor binding assay). Settings: CHO cells with recombinant expression of the human P2Y12 receptor; tritium-labeled 2-methyl-S-ADP; 2 hours at RT.
T1 construct: expressed in transfected cells; host or cells: Chinese Hamster Ovary (CHO) cells
T1 sequence (Q9H244 whole entry): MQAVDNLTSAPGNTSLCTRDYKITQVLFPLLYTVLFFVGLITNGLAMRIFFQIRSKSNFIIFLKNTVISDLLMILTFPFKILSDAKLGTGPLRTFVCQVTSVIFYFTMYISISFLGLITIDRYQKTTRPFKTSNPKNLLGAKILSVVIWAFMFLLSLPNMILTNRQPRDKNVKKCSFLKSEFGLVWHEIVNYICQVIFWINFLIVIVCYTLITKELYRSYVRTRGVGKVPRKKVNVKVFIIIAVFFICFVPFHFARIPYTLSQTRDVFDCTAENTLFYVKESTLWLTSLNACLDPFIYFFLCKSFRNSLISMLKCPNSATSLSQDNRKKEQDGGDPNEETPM
Method: P2Y12 Receptor Binding Assay
Chinese Hamster Ovary (CHO) cells with recombinant expression of the human P2Y12 receptor were cultured in 24 well cell-culture plates. Cells were washed three times with binding buffer (50 mM Tris pH 7.4, 100 mM NaCl, 1 mM EDTA, 0.5% BSA). The cells were then incubated with 0.5 mL per well binding buffer containing tritium-labeled 2-methyl-thio-adenosine 5′-diphosphate (2-methyl-S-ADP) (between 100,000 and 300,000 dpm per well) and various concentrations of test compounds. After incubation at RT for 2 hours, cells were washed three times with binding buffer. Then, cells were solubilized by addition of 0.5 mL solubilization buffer (SDS, NaOH, EDTA). The content of each well was then transferred into beta-counter vials and 2.0 ml of Ultima Gold Scintillation liquid was added.

| IC50 | SMILES |
| --- | --- |
| 5 nM | CCCCOC(=O)N1CCN(C(=O)[C@H](CP(=O)(O)O)NC(=O)c2cc([C@H]3C[C@@H]3CO)cc(-c3ccccc3)n2)CC1 [Example 20, 4-((R)-2-{[4-((1S,2S)-2-hydroxymethyl-cyclopropyl)-6-phenyl-pyridine-2-carbonyl]-amino}-3-phosphono-propionyl)-piperazine-1-carboxylic acid butyl ester] |
| 30 nM | CCCCOC(=O)N1CCN(C(=O)[C@@H](CCCP(=O)(O)O)NC(=O)c2cc(N3CC[C@H](OC)C3)cc(-c3ccccc3)n2)CC1 [Example 14, 4-((R)-2-{[4-((S)-3-methoxy-pyrrolidin-1-yl)-6-phenyl-pyridine-2-carbonyl]-amino}-5-phosphono-pentanoyl)-piperazine-1-carboxylic acid butyl ester] |
| 4 nM | CCCCOC(=O)N1CCN(C(=O)[C@H](CP(=O)(O)O)NC(=O)c2cc(NC3CC3)cc(-c3ccccc3)n2)CC1 [Example 31, 4-{(R)-2-[(4-cyclopropylamino-6-phenyl-pyridine-2-carbonyl)-amino]-3-phosphono-propionyl}-piperazine-1-carboxylic acid butyl ester] |
| 19 nM | CCCCOC(=O)N1CCN(C(=O)[C@H](CP(=O)(O)O)NC(=O)c2cc(-c3ccccc3)cc(-c3ccc(F)cc3)n2)CC1 [Example 17, 4-((R)-2-{[6-(4-fluoro-phenyl)-4-phenyl-pyridine-2-carbonyl]-amino}-3-phosphono-propionyl)-piperazine-1-carboxylic acid butyl ester] |
| 186 nM | CCCCOC(=O)N1CCN(C(=O)C(NC(=O)c2cc(N3CC[C@H](OC)C3)cc(-c3ccccc3)n2)P(=O)(O)O)CC1 (stereo partly drawn) [Example 12, 4-(-2-{[4-((S)-3-methoxy-pyrrolidin-1-yl)-6-phenyl-pyridine-2-carbonyl]-amino}-2-phosphono-acetyl)-piperazine-1-carboxylic acid butyl ester] |
| 2 nM | CCCCOC(=O)N1CCN(C(=O)[C@H](CP(=O)(O)O)NC(=O)c2cc(OCCOC)cc(-c3ccccc3)n2)CC1 [Example 36, 4-((R)-2-{[4-(2-methoxy-ethoxy)-6-phenyl-pyridine-2-carbonyl]-amino}-3-phosphono-propionyl)-piperazine-1-carboxylic acid butyl ester] |
| 1 nM | CCOC(=O)N1CCN(C(=O)[C@H](Cc2ccc(P(=O)(O)O)cc2)NC(=O)c2cc(N3CC[C@H](OC)C3)cc(-c3ccccc3)n2)CC1 [Example 24, 4-[(S)-2-{[4-((S)-3-methoxy-pyrrolidin-1-yl)-6-phenyl-pyridine-2-carbonyl]-amino}-3-(4-phosphono-phenyl)-propionyl]-piperazine-1-carboxylic acid ethyl ester] |

| SMILES | IC50 |
| --- | --- |
| CCCCOC(=O)N1CCN(C(=O)[C@H](CP(=O)(OCOC(C)=O)OCOC(C)=O)NC(=O)c2cc(N3CC[C@H](OC)C3)cc(-c3ccccc3)n2)CC1 [Example 39, 4-((R)-3-(Bis-acetoxymethoxy-phosphoryl)-2-{[4-((S)-3-methoxy-pyrrolidin-1-yl)-6-phenyl-pyridine-2-carbonyl]-amino}-propionyl)-piperazine-1-carboxylic acid butyl ester] | 3 nM |
